According to US5126057A, “Disinfecting with N,N'-dihaloimidazolidin-4-ones” (Auburn Research Foundation, priority 1991, dated 1992):
Each block holds one compound with its values, some of them ahead of it.

Assays:
[1] = Laboratory stability in halogen demand-free water (DFW), iodometric titration; format: physicochemical; conditions: for remaining at 23.52 h / remaining at 95.76 h / remaining at 168 h / remaining at 336 h / remaining at 504 h / remaining at 672 h / remaining at 840 h / remaining at 1008 h / remaining at 119.28 h: demand-free water
Experimental: The stability of 1,3-dichloro-2,2,5,5-tetramethylimidazolidin-4-one (Compound 1) in halogen demand-free water was determined at 22° C. and pH values of 4.5, 7.0, and 9.5, and the results were compared to those for free chlorine as supplied by calcium hypochlorite. The demand-free water (DFW) was prepared by chlorination of distilled, deionized water buffered to the appropriate pH followed by dechlorination (of the excess free chlorine) by exposure to direct sunlight until no free chlorine remained. This treatment insured that all halogen demand in the water was neutralized. Then Compound 1 and calcium hypochlorite were separately dissolved in identical DFW (buffered to an appropriate pH) solutions to the same final total chlorine concentrations (10 milligrams per liter potential positive chlorine). The solutions in separate flasks, which were stoppered with porous, sterile cotton plugs to allow free exchange with laboratory air, were then held at a constant temperature of 22° C. by means of a controlled water bath for a period of several weeks. Aliquots were withdrawn periodically (at least weekly), and the total positive chlorine remaining was determined in triplicate by standard iodometric titration. […]
The stabilities of 1,3-dibromo-2,2,5,5-tetramethylimidazolidin-4-one (Compound 4) and 1-bromo-3-chloro-2,2,5,5-tetramethylimidazolidin-4-one (Compound 5) in halogen demand-free water (DFW) were determined at 22° C. and pH values of 7.0 and 9.5 using the same procedures as discussed under example 9. Given the instability of Compound 1 at pH 4.5 (example 9), it was deemed unnecessary to test compounds 4 and 5 at that pH. The two compounds were dissolved in DFW buffered to the appropriate pH in separate flasks and held at a temperature of 22° C. by means of a constant temperature bath. The starting concentrations of total potential positive halogen in the two solutions were 22.6 milligrams per liter for Compound 4 and 16.25 milligrams per liter for Compound 5; these concentrations represent the molar equivalents in total potential positive halogen to that used for Compound 1 in example 9. The solutions were analyzed in the manner described in example 9.

[2] = Stability in synthetic halogen demand water (SDW); format: physicochemical; conditions: 4° C.; for stability (in words): heavy halogen demand (SDW), pH 9.5; for remaining at 0.083 h: pH 9.5, 0.083 hrs; for remaining at 0.5 h: pH 9.5, 0.5 hrs; for remaining at 1 h: pH 9.5, 1.0 hrs; for remaining at 2 h: pH 9.5, 2.0 hrs; for remaining at 4 h: pH 9.5, 4.0 hrs; for remaining at 24 h: pH 9.5, 24.0 hrs
Experimental: A synthetic halogen demand water (SDW) was prepared by mixing the following substances with demand-free water (DFW): 375 milligrams per liter of each of the inorganic salts sodium chloride, potassium chloride, calcium chloride, and magnesium chloride; 50 milligrams per liter of Bentonite clay; 30 milligrams per liter of humic acid; 0.01 percent final concentration of heat-treated horse serum; and 5×10^5 cells per milliliter of heat-killed Saccharomyces cerevisiae yeast cells. The SDW solution was buffered with 0.01 Molar borate/sodium hydroxide to a pH of 9.5 and held at 4° C. during the experiments. The conditions of high ionic strength, turbidity, and organic material, and alkaline pH at low temperature, are viewed as a worst-case scenario for disinfection applications and thus should provide the optimum test of stability for the new compounds.
In separate flasks were dissolved compounds 1, 2, 3, and 5 to a starting concentration of 10 milligrams per liter total potential positive chlorine or its molar equivalent (16.25 milligrams per liter) in total potential positive halogen for Compound 5. Aliquots were withdrawn frequently over a period of more than 90 hours, and the percent positive halogen remaining was determined by standard iodometric titration.

[3] = system: Staphylococcus aureus (ATCC25923); experiment: Bactericidal efficacy, percent inactivation of S. aureus; format: cell-based; conditions: for killing at 5 ppm: DFW; for killing at 10 ppm: SDW
Experimental: (§1) The halogenated imidazolidin-4-one derivatives prepared as in examples 3, 5, and 6 (Compounds 1, 5, and 3, respectively) were tested as bactericides against the microorganisms Staphylococcus aureus (ATCC25923) and Pseudomonas aeruginosa (ATCC 27853) in demand-free water (DFW) as a function of pH and temperature and in a synthetic-demand water (SDW) at pH 9.5 and 4° C. The demand-free and synthetic-demand waters were prepared as described in examples 7 and 12, respectively.
(§2) For the bactericidal efficacy tests 50 milliliters of buffered DFW or SDW were placed in a 125 milliliter flask which was then inoculated with the organism to be tested such that the final density of the organism was about 1×10^6 cfu/ml (colony forming units per milliliter). The inoculated solution was allowed to equilibrate at the test temperature by immersion in a thermostated water bath for 15 minutes with constant stirring. Then an appropriate amount of an aqueous solution containing the test halogenated imidazolidin-4-one compound maintained at the same test temperature was added to the inoculated solution to bring the total concentration of potential positive halogen (Cl^+ or Cl^+ /Br^+) in the mixture to a predetermined level (10 parts per million and 5 parts per million Cl^+ from compounds 1 and 3; the molar equivalent in Cl^+ /Br^+ from Compound 5). 1 milliliter aliquots were removed from the test mixture at various predetermined times, and the active halogen was quenched by 1 milliliter portions of sterile 0.02 Normal sodium thiosulfate. Serial dilutions were made into sterile saline, and three 25 microliter aliquots of each of the resulting dilutions were applied to the dried surface of a Petri dish containing tryptic soy and nutrient agars for plating S. aureus and P. aeruginosa, respectively. After 48 hours at 37° C. the three replicates for each dilution were counted and averaged. This average was used to compute the cfu/ml for that particular aliquot. Inactivation of the organism was considered to be at least 99.9999 percent when no colonies were detected in the thiosulfate quenched aliquots.

[4] = system: bacteria; experiment: Bactericidal efficacy, summary over all bacteria and conditions; format: cell-based, Staphylococcus aureus and Pseudomonas aeruginosa; conditions: for bactericidal efficiency (in words): Table V conditions
Experimental: as §1, §2

[5] = synthetic halogen demand water, SDW, read-out: Percent Halogen Remaining
[6] = ATCC25923, 5 min, pH 4.5, pH 4.5, 22° C., 5 minutes
[7] = ATCC25923, 5 min, pH 7, pH 7.0, 22° C., 5 minutes
[8] = ATCC25923, 5 min, pH 9.5, pH 9.5, 4° C., 5 minutes
[9] = ATCC25923, 5 min, pH 9.5, pH 9.5, 22° C., 5 minutes
[10] = ATCC25923, 10 min, pH 4.5, pH 4.5, 22° C., 10 minutes
[11] = ATCC25923, 10 min, pH 7, pH 7.0, 22° C., 10 minutes
[12] = ATCC25923, 10 min, pH 9.5, pH 9.5, 4° C., 10 minutes
[13] = ATCC25923, 10 min, pH 9.5, pH 9.5, 22° C., 10 minutes

remaining at 23.52 h ([1]; pH 4.5): 100%
remaining at 95.76 h ([1]; pH 4.5): 88.9%
remaining at 168 h ([1]; pH 4.5): 77.6%
remaining at 336 h ([1]; pH 4.5): 55.5%
remaining at 504 h ([1]; pH 4.5): 40.4%
remaining at 672 h ([1]; pH 4.5): 30.7%
remaining at 840 h ([1]; pH 4.5): 26%
remaining at 1008 h ([1]; pH 4.5): 23.5%
remaining at 168 h ([1]; pH 7): 97.1%
remaining at 336 h ([1]; pH 7): 95%
remaining at 504 h ([1]; pH 7): 93.5%
remaining at 672 h ([1]; pH 7): 90.6%
remaining at 840 h ([1]; pH 7): 86%
remaining at 1008 h ([1]; pH 7): 83.4%
remaining at 23.52 h ([1]; pH 9.5): 96.5%
remaining at 95.76 h ([1]; pH 9.5): 98.9%
remaining at 168 h ([1]; pH 9.5): 95.1%
remaining at 336 h ([1]; pH 9.5): 89.4%
remaining at 504 h ([1]; pH 9.5): 82.6%
remaining at 672 h ([1]; pH 9.5): 72.3%
remaining at 840 h ([1]; pH 9.5): 63.7%
remaining at 1008 h ([1]; pH 9.5): 55.1%
stability (in words) ([1]; pH 4.5): rather unstable in acidic DFW (pH 4.5)
remaining at 0.083 h [2, 5]: 98.8%
remaining at 0.25 h ([2]; synthetic halogen demand water, SDW, pH 9.5, 0.25 hrs, read-out: Percent Halogen Remaining): 98.8%
remaining at 0.5 h [2, 5]: 93.1%
remaining at 1 h [2, 5]: 92.4%
remaining at 2 h [2, 5]: 92.4%
remaining at 4 h [2, 5]: 88.8%
remaining at 25 h ([2]; synthetic halogen demand water, SDW, pH 9.5, 25.0 hrs, read-out: Percent Halogen Remaining): 71.4%
remaining at 93 h ([2]; synthetic halogen demand water, SDW, pH 9.5, 93.0 hrs, read-out: Percent Halogen Remaining): 60.2%
Structure (SMILES): CC1(C)C(=O)N(Cl)C(C)(C)N1Cl [Compound 1, 1,3-dichloro-2,2,5,5-tetramethylimidazolidin-4-one]
stability (in words), against Compounds 4 and 5 [1]: considerably more stable in DFW at pH values of 7.0 and 9.5 and 22 °C than are Compounds 4 and 5
stability (in words) ([1]; pH 7): considerably more stable in DFW at pH 7.0 at 22 °C than is free chlorine
stability (in words), against free chlorine ([1]; pH 9.5): more stable than free chlorine in alkaline DFW (pH 9.5)
stability (in words) [2]: much more stable under these conditions than is free chlorine
killing at 5 ppm [3, 6]: 100%
killing at 5 ppm [3, 7]: 89.1%
killing at 5 ppm [3, 8]: 71.3%
killing at 10 ppm [3, 8]: 43.8%
killing at 5 ppm [3, 9]: > 100%
killing at 5 ppm [3, 10]: > 100%
killing at 5 ppm [3, 11]: 99.1%
killing at 5 ppm [3, 12]: 80.9%
killing at 10 ppm [3, 12]: 68.1%
killing at 5 ppm [3, 13]: > 100%
bactericidal efficiency (in words) [4]: reasonably efficient as a bactericide

remaining at 0.083 h [2, 5]: 99.2%
remaining at 0.5 h [2, 5]: 96.6%
remaining at 2 h [2, 5]: 95.4%
remaining at 8 h ([2]; synthetic halogen demand water, SDW, pH 9.5, 8.0 hrs, read-out: Percent Halogen Remaining): 94.1%
remaining at 24 h [2, 5]: 94.9%
remaining at 48 h ([2]; synthetic halogen demand water, SDW, pH 9.5, 48.0 hrs, read-out: Percent Halogen Remaining): 94.5%
remaining at 72 h ([2]; synthetic halogen demand water, SDW, pH 9.5, 72.0 hrs, read-out: Percent Halogen Remaining): 94.1%
remaining at 122 h ([2]; synthetic halogen demand water, SDW, pH 9.5, 122.0 hrs, read-out: Percent Halogen Remaining): 94.1%
Structure (SMILES): CC1(C)NC(=O)C(C)(C)N1Cl [Compound 3, 1-chloro-2,2,5,5-tetramethylimidazolidin-4-one]
stability (in words) ([1]; pH 7): more stable than Compound 1 and considerably more stable than free chlorine (Compound 2) in DFW at pH 7.0 and 22 °C
stability (in words) [2]: extremely stable in the presence of heavy demand
killing at 5 ppm [3, 6]: 87.4%
killing at 5 ppm [3, 7]: 0%
killing at 10 ppm [3, 8]: 2.86%
killing at 5 ppm [3, 9]: 32.7%
killing at 5 ppm [3, 10]: 96.3%
killing at 5 ppm [3, 11]: 4.42%
killing at 10 ppm [3, 12]: 0%
killing at 5 ppm [3, 13]: 50.2%
bactericidal efficiency (in words) [4]: least efficient
inactivation ([4]; all conditions tested, given sufficient contact time): greater than 99.9999%

remaining at 23.52 h ([1]; pH 7): 97.3%
remaining at 119.28 h ([1]; pH 7): 95.4%
remaining at 168 h ([1]; pH 7): 91.7%
remaining at 336 h ([1]; pH 7): 88.2%
remaining at 504 h ([1]; pH 7): 75%
remaining at 672 h ([1]; pH 7): 45.9%
remaining at 840 h ([1]; pH 7): 17.5%
remaining at 1008 h ([1]; pH 7): 7.6%
remaining at 23.52 h ([1]; pH 9.5): 96.3%
remaining at 119.28 h ([1]; pH 9.5): 89.5%
remaining at 168 h ([1]; pH 9.5): 88.3%
remaining at 336 h ([1]; pH 9.5): 86.3%
remaining at 504 h ([1]; pH 9.5): 70.8%
remaining at 672 h ([1]; pH 9.5): 60.8%
remaining at 840 h ([1]; pH 9.5): 46.8%
remaining at 1008 h ([1]; pH 9.5): 38.4%
remaining at 0.008 h ([2]; synthetic halogen demand water, SDW, pH 9.5, 0.008 hrs, read-out: Percent Halogen Remaining): 64%
remaining at 0.167 h ([2]; synthetic halogen demand water, SDW, pH 9.5, 0.167 hrs, read-out: Percent Halogen Remaining): 49.9%
remaining at 0.5 h [2, 5]: 47.1%
remaining at 1 h [2, 5]: 47.4%
remaining at 4 h [2, 5]: 41.9%
remaining at 24 h [2, 5]: 38.2%
remaining at 94 h ([2]; synthetic halogen demand water, SDW, pH 9.5, 94.0 hrs, read-out: Percent Halogen Remaining): 31.8%
Structure (SMILES): CC1(C)C(=O)N(Cl)C(C)(C)N1Br [Compound 5, 1-bromo-3-chloro-2,2,5,5-tetramethylimidazolidin-4-one]
stability (in words), against free chlorine ([1]; pH 9.5): comparable in stability to free chlorine (see data in example 9) at pH 9.5 only
stability (in words) [2]: comparable in stability to free chlorine under these conditions
killing at 5 ppm [3, 6]: > 100%
killing at 5 ppm [3, 7]: > 100%
killing at 5 ppm [3, 8]: > 100%
killing at 10 ppm [3, 8]: > 100%
killing at 5 ppm [3, 9]: > 100%
killing at 5 ppm [3, 10]: > 100%
killing at 5 ppm [3, 11]: > 100%
killing at 5 ppm [3, 12]: > 100%
killing at 10 ppm [3, 12]: > 100%
killing at 5 ppm [3, 13]: > 100%
reduction of bacteria ([4]; all conditions, less than or equal 5 minutes of contact time, even in SDW): greater than 99.9999%
